Tests used:
Test in all cases: relative viability (nuclei count vs DMSO), 5 days (fraction); higher = more cells survive
[1] = compound: Cn1cc(-c2cnc3ccc4ccc(CS(=O)(=O)NCc5ccccn5)cc4c(=O)c3c2)cn1 [MK-8033] + CS(=O)(=O)N1CCN(Cc2cc3nc(-c4cccc5[nH]ncc45)nc(N4CCOCC4)c3s2)CC1 [Pictilisib] (partner 1 µM)
Procedure, shortened: (§1)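 Relative viability divides the nuclei count in treated wells by that in vehicle wells. Lung cancer cell lines were seeded in 1536-well plates, dosed by pin tool the next day, and fixed and stained after 5 days in one step with final 0.05% Triton X-100, 1% formaldehyde and 1 ug/ml Hoechst. Dosing was a single drug or a fixed anchor-drug dose plus five library-drug doses (not always all listed) in √10 steps, and values are medians of duplicate plates imaged at 4×.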

[2] = compound: CCc1c2c(nc3ccc(OC(=O)N4CCC(N5CCCCC5)CC4)cc13)-c1cc3c(c(=O)n1C2)COC(=O)[C@]3(O)CC [Irinotecan] + COc1cccc2cc(-c3nc([C@H]4CC[C@H](C(=O)O)CC4)n4ncnc(N)c34)[nH]c12 [OSI-027] (partner 0.5 µM)
Procedure, shortened: as §1

[3] = compound: CC[C@@H](C)CNCC(=O)N1CCC2=C([C@@H]1COC3=CC=CC(=C3)C)C=CS2 [RU-SKI 43] + Cc1cc(Nc2cc(N3CCN(C)CC3)nc(Sc3ccc(NC(=O)C4CC4)cc3)n2)n[nH]1 [Tozasertib] (partner 0.1 µM)
Procedure, shortened: as §1

[4] = compound: Cn1cc(-c2cnc3ccc4ccc(CS(=O)(=O)NCc5ccccn5)cc4c(=O)c3c2)cn1 [MK-8033] + O=C(CCCCCCC(=O)Nc1ccccc1)NO [Vorinostat] (partner 1 µM)
Procedure, shortened: as §1

Row | Cell Line | relative viability ([1]; first compound 0.02 µM) | relative viability ([1]; first compound 0.06325 µM) | relative viability ([1]; first compound 0.2 µM) | relative viability ([1]; first compound 0.6325 µM) | relative viability ([1]; first compound 2 µM) | relative viability ([2]; first compound 0.6325 µM) | relative viability ([2]; first compound 2 µM) | relative viability ([2]; first compound 6.325 µM) | relative viability ([2]; first compound 20 µM) | relative viability ([3]; first compound 0.1 µM) | relative viability ([3]; first compound 0.3162 µM) | relative viability ([3]; first compound 1 µM) | relative viability ([3]; first compound 3.162 µM) | relative viability ([3]; first compound 10 µM) | relative viability ([4]; first compound 0.02 µM) | relative viability ([4]; first compound 0.06325 µM) | relative viability ([4]; first compound 0.2 µM) | relative viability ([4]; first compound 0.6325 µM) | relative viability ([4]; first compound 2 µM)
1 | NCI-H1395 | 0.726 | 0.579 | 0.683 | 0.606 | 0.628 | 0.352 | 0.561 | 0.45 | 0.438 | 0.866 | 0.694 | 0.774 | 0.789 | 0.692 | 0.673 | 0.673 | 0.638 | 0.654 | 0.692
2 | NCI-H1437 | 0.56 | 0.409 | 0.384 | 0.449 | 0.482 | 0.797 | 0.722 | 0.378 | 0.184 | 0.362 | 0.34 | 0.443 | 0.379 | 0.38 | 0.703 | 0.801 | 0.732 | 0.899 | 0.769
3 | NCI-H1650 | 0.601 | 0.469 | 0.646 | 0.527 | 0.544 |  | 0.902 | 0.575 | 0.196 | 0.381 | 0.374 | 0.38 | 0.427 | 0.303 | 0.507 | 0.416 | 0.723 | 0.532 | 0.562
4 | NCI-H1651 | 0.602 | 0.528 | 0.433 | 0.631 | 0.507 | 0.532 | 0.485 | 0.349 | 0.174 | 0.649 | 0.722 | 0.839 | 0.642 | 0.572 | 0.665 | 0.484 | 0.593 | 0.597 | 0.633
5 | NCI-H1666 | 0.365 | 0.31 | 0.459 | 0.422 | 0.481 | 0.792 | 0.809 | 0.544 | 0.26 | 0.495 | 0.596 | 0.571 | 0.525 | 0.435 | 1.04 | 1.01 | 1.01 | 1.09 | 1.04
6 | NCI-H1734 | 0.48 | 0.37 | 0.466 | 0.469 | 0.45 |  | 0.509 | 0.225 | 0.165 | 0.238 | 0.217 | 0.276 | 0.258 | 0.267 | 0.874 | 0.639 | 0.698 | 0.836 | 0.758
7 | NCI-H1755 | 0.413 | 0.399 | 0.368 | 0.405 | 0.481 | 0.378 | 0.652 | 0.381 | 0.42 | 0.622 | 0.651 | 0.602 | 0.571 | 0.496 | 0.748 | 0.791 | 0.75 | 0.678 | 0.766
8 | NCI-H1793 | 0.32 |  | 0.286 | 0.307 | 0.258 |  | 0.251 | 0.255 | 0.198 | 0.333 | 0.321 | 0.344 | 0.324 | 0.281 | 0.675 |  | 0.559 | 0.713 | 0.618
9 | NCI-H1915 | 0.969 | 0.785 | 0.914 | 1 | 0.861 | 0.303 | 0.295 | 0.216 | 0.346 | 0.435 | 0.516 | 0.38 | 0.469 | 0.4 | 0.467 | 0.438 | 0.518 | 0.494 | 0.49
